Here are results for six molecules from patent US20120094963A1, “TARGETING PRODRUGS AND COMPOSITIONS FOR THE TREATMENT OF GASTROINTESTINAL DISEASES” (of Queen Elizabeth near Dublin, priority 2008, published 2012).

Several values for one entry are separate records, joined by “and”; a condition that tells them apart may be missing. Identical values can stand only once. Like-named read-outs stand apart in the source and are kept apart here.

The conditions of data set [1]: cited from earlier work; for risk of heart attack: VIGOR study patients.
For data set [2] the following is noted: APPROVe; beginning after 18 months of therapy; cited from earlier work.
In data set [3] the test system is Clostridium perfringens. To be noted: anaerobic, 37° C.; for Celecoxib prodrug concentration: C. perfringens in BHI.
The conditions of data set [4]: BHI media without bacteria.
In data set [5] the test system is small intestinal polyps. As to conditions: 50 mg/kg qd p.o.; APCmin mice; cited from earlier work.
Data set [6] deals with intestinal polyps. To be noted: 100 ppm in the diet; min mice; cited from earlier work.
For data set [7] the following is noted: long-term (33 months) high-dose, 400 and 800 mg daily; cited from earlier work.

Consider `CS(=O)(=O)c1ccc(C2=C(c3ccccc3)C(=O)OC2)cc1` [rofecoxib], for which the “risk of heart attack” value in data set [1] is recorded as 0.4%. In data set [1] (VIGOR study, naproxen patients compared with rofecoxib patients), the “RR of heart attack” value is 0.25. Also, in data set [2], the “risk of adverse thrombotic cardiovascular events” value is “increased relative risk of adverse thrombotic cardiovascular events”.

As to `Cc1ccc(-c2cc(C(F)(F)F)nn2-c2ccc(S(=O)(=O)NC(=O)CCc3ccccc3/N=N/c3ccc(O)c(C(=O)O)c3)cc2)cc1` [PC1, 2-Hydroxy-5-(2-3{-oxo-3[4-(5-p-tolyl-3-trifluoromethyl-pyrazol-1-yl)-benzenesulfonylamino]-propyl}-phenylazo)-benzoic acid], the Celecoxib prodrug concentration in data set [3] (0 hours) was 15.59 µM and 14.97 µM; in data set [3] (8 hours), 0.00 µM; in data set [3] (24 hours), 0.00 µM. Besides, the “Azoreductase activity of Clostridium perfringens towards the prodrug” value in data set [3] was “Azoreductase activity was observed”. Further, the “Celecoxib prodrug in BHI” value was 16.70 µM in data set [4] (0 hours); 18.40 µM in data set [4] (2 hours); 17.14 µM in data set [4] (4 hours); 15.29 µM in data set [4] (6 hours); 15.15 µM in data set [4] (8 hours); 16.99 µM in data set [4] (24 hours).

Regarding `C#Cc1cccc(Nc2ncnc3cc(OCCOC)c(OCCOC)cc23)c1` [erlotinib], in data set [5], the “inhibition in total polyp number” value is on record as 57%, the “reduction in the number of 1- to 2-mm-sized polyps” value is given as 46%, the “reduction in the number of <1-mm-sized polyps” value is on record as 43% and the “reduction in the number of large-sized (>2 mm) polyps” value is 96%.

Turning to `CC(C)c1c(C(=O)Nc2ccccc2)c(-c2ccccc2)c(-c2ccc(F)cc2)n1CC[C@@H](O)C[C@@H](O)CC(=O)O` [atorvastatin], the intestinal polyp formation entry in data set [6] is listed as “significantly (P<0.002) suppressed intestinal polyp formation”.

Regarding `COc1ccc2cc([C@H](C)C(=O)O)ccc2c1` [naproxen], the “risk of heart attack” value in data set [1] was 0.1%.

On to `Cc1ccc(-c2cc(C(F)(F)F)nn2-c2ccc(S(N)(=O)=O)cc2)cc1` [celecoxib], for which, in data set [7], the cardiovascular risk entry is listed as “increased cardiovascular risk compared with placebo”.
